Measurements: patent US4080442A, “Disaccharide derivatives used in the treatment of hepatic diseases” (Meito Sangyo Kabushiki Kaisha, priority 1975, dated 1978)

Test system: experimental hepatitis induced by D-galactosamin
Experiment: Conjoint use of glutathione in experimental hepatitis induced by D-galactosamin
Assay type: in vivo, female Wistar rats
Details: GSH 5 mg/rat, GSSH 5 mg/rat, AS 75 mg/rat, mixtures: GSH or GSSH 5 mg/rat + AS 75 mg/rat, average value ± S.E.
Protocol: Groups each of 10 female Wistar rats of 100 - 120 gram body weight put on a fast of 2 hours prior to the experiment were used. […] One hour after these administrations, all of the groups were administered with D-galactosamin. The administration of the D-galactosamin was performed in the following manner. […] After completion of this administration, the fasted state was continued. Twenty-two hours after the administration of the D-galactosaminhydrochloride, blood was taken from the abdominal aorta and measured for the GOT, GPT, bilirubin and blood glucose contained in the blood plasma. The GOT and GPT were measured by the Reitman-Frankel Method, the bilirubin by the Evelyn-Malloy Method and the blood glucose by the […].
The effects obtained by using injection mixtures of either a reduced type glutathione or an oxidized type glutathione and a sucrose derivative obtained by the method of preparing a pharmaceutical composition of the hereinafter-given Example 11 in treating animals suffering from hepatitis induced by D-galactosamin were tested by operating as in I., above.

`N[C@@H](CCC(=O)N[C@@H](CS)C(=O)NCC(=O)O)C(=O)O` [GSH, Reduced type glutathione] was tested, and the GPT (control 1830±432) was 1660±472 Karman U and the GOT (control 2748±490) was 2510±510 Karmen U.
